Data from US9145351B2, “Azole derivatives, methods for producing the same, intermediate thereof, agro-horticultural agents” (KUREHA CORPORATION, priority 2009, dated 2015).

Columns and labels:
Aureobasidium sp. = test: Plate medium assay, industrial material deteriorating microorganism, Aureobasidium (Experimental Example 5); format: cell-based; conditions: treatment at 50 mg/l, PDA plate medium, read-out: growth inhibition grade
Procedure: (§1) In this Experimental Example, the fungicidal effects of the inventive compounds on various phytopathogenic fungi for plants and hazardous microorganism for industrial materials were examined by the methods described below. Each inventive compound was dissolved in 2 ml of dimethyl sulfoxide. 0.6 ml of this solution was added to 60 nil of a PDA medium (potato dextrose agar medium) at about 60 degrees C., which was mixed thoroughly in a 100-ml conical flask, and poured into a dish, where it was solidified, thereby obtaining a plate medium containing the inventive compound at 50 mg/L and 5 mg/L. On the other hand, a subject microorganism previously cultured on a plate medium was cut out using a cork borer whose diameter was 4 mm, and inoculated to the test compound-containing plate medium described above. […] The growth degree of the microorganism on the test compound-containing plate medium thus observed was compared with the growth degree of the microorganism in the untreated group, and % mycelial growth inhibition was calculated by the following equation. R=100(dc-dt)/dc wherein R=% mycelial extension inhibition, dc=flora diameter in untreated plate, dt=flora diameter in treated plate. The results obtained as described above were evaluated as one of the 5 grades according to the following criteria.

Aspergillus sp. = test: Plate medium assay, industrial material deteriorating microorganism, Aspergillus (Experimental Example 5); format: cell-based; conditions: treatment at 50 mg/l, PDA plate medium, read-out: growth inhibition grade
Procedure: as §1

Septoria tritici = test: Microplate test of biocidal effect on wheat Septoria blotch (Experimental Example 4); format: cell-based; conditions: Zymoseptoria tritici, 240 h; % mycelium growth inhibition, absorbance 550 nm, 20 degrees C. for about 10 days; read-out: activity level (EC80)
Procedure: A spore suspension of wheat Septoria blotch (Septoria tritici) (spore concentration: 1×10^6 cells/ml) was prepared, and subjected to 100-fold dilution with a PD medium. A flat 96-well microplate was provided and 1 microliter of the test compound solution formed by dissolution in dimethyl sulfoxide (DMSO) at a concentration 100 times the test concentration was dispensed to the microplate, and then 100 microliter of the medium containing the spore was added and stirred thoroughly. […] R=100×(dc−dt)/dc: R: % mycelium growth inhibition dc: Absorbance of non-treatment zone dt: Absorbance of treatment zone

Curvularia sp. = test: Plate medium assay, industrial material deteriorating microorganism, Curvularia (Experimental Example 5); format: cell-based; conditions: treatment at 50 mg/l, PDA plate medium, read-out: growth inhibition grade
Procedure: as §1

Puccinia recondita = test: Efficacy test against wheat brown rust, 100 mg/L and 10 mg/L (Experimental Example 2); format: in vivo; conditions: nine to 14 days after inoculation; for efficacy compared with compound (1): 10 mg/L sprayed at 1,000 L/ha; for pest or weed control at 100 µg/mL: Puccinia recondita, 336 h, 100 mg/L sprayed at 1,000 L/ha, read-out: Protective value
Procedure: Onto a wheat plant (variety: NORIN No. 61) grown to the two-leaf phase using a square plastic pot (6 cm×6 cm), a wettable formulation such as Formulation Example 1 which was diluted and suspended in water at a certain concentration (100 mg/L and 10 mg/L) was sprayed at a rate of 1,000 L/ha. The sprayed leaves were air-dried, and inoculated with spore suspension of Puccinia recondita (adjusted at 200 spores/vision, […] was added at 60 ppm) by spraying, and kept at 25 degrees C. and a high humidity for 48 hours. Thereafter, the plant was kept in a greenhouse. Nine to 14 days after inoculation, the wheat brown rust lesion degree was investigated, and the protective value was calculated by the following equation. Protective value (%)=(1-lesion degree in sprayed plot/lesion degree in unsprayed plot)×100

Botrytis cinerea = test: Efficacy test against cucumber gray mold (Experimental Example 1); format: in vivo; conditions: 96 h, four days after inoculation, read-out: Protective value; for pest or weed control at 50 µg/mL: 50 mg/L sprayed at 1,000 L/ha; for pest or weed control at 100 µg/mL: 100 mg/L sprayed at 1,000 L/ha
Procedure: Onto a cucumber (variety:SHARP1) plant in its cotyledon phase grown using a square plastic pot (6 cm×6 cm), a wettable formulation such as Formulation Example 1 which was diluted and suspended in water at a certain concentrations (100 mg/L and 50 mg/L) was sprayed at a rate of 1,000 L/ha. The sprayed leaves were air-dried, and loaded with a paper disc (8 mm in diameter) soaked in a spore suspension of Botrytis cinerea, and kept at 20 degrees C. and a high humidity. Four days after inoculation, the cucumber gray mold lesion degree was investigated, and the protective value was calculated by the following equation. Protective value (%)=(1−mean lesion degree in sprayed plot/mean lesion degree in unsprayed plot)×100

Tyromyces palustris = test: Plate medium assay, wood denaturing microorganism Oouzuratake (Experimental Example 5); format: cell-based; conditions: treatment at 50 mg/l, PDA plate medium; read-out: growth inhibition grade
Procedure: as §1

Coriolus versicolor = test: Plate medium assay, wood denaturing microorganism Kawaratake (Experimental Example 5); format: cell-based; conditions: Trametes versicolor; treatment at 50 mg/l, PDA plate medium; read-out: growth inhibition grade
Procedure: as §1

Penicillium sp. = test: Plate medium assay, industrial material deteriorating microorganism, Penicillium (Experimental Example 5); format: cell-based; conditions: treatment at 50 mg/l, PDA plate medium, read-out: growth inhibition grade
Procedure: as §1

SMILES	inhibition at 50 µg/mL (Aureobasidium sp.) [%]	inhibition at 50 µg/mL (Aspergillus sp.) [%]	EC80 (Septoria tritici) [µg/mL]	inhibition at 50 µg/mL (Curvularia sp.) [%]	efficacy compared with compound (1) (Puccinia recondita)	pest or weed control at 100 µg/mL (Puccinia recondita) [%]	pest or weed control at 50 µg/mL (Botrytis cinerea) [%]	pest or weed control at 100 µg/mL (Botrytis cinerea) [%]	inhibition at 50 µg/mL (Tyromyces palustris) [%]	inhibition at 50 µg/mL (Coriolus versicolor) [%]	inhibition at 50 µg/mL (Penicillium sp.) [%]
CC(Cl)=C[C@@]1(C)CC[C@@H](Cc2ccc(Cl)cc2)[C@]1(O)Cn1cncn1 (racemic) [Compound I-15, (1RS,2RS,5SR)-5-(4-chlorobenzyl)-2-(2-chloropropenyl)-2-methyl-1-(1H-1,2,4-triazol-1-ylmethyl)cyclopentanol]	60 to 80	60 to 80	≤ 0.2	60 to 80	higher efficacy than that of compound (1)	≥ 90	≥ 80	≥ 80	60 to 80	60 to 80	60 to 80
C[C@]1(CBr)CC[C@@H](Cc2ccc(Cl)cc2)[C@]1(O)Cn1cncn1 (racemic) [Compound I-25, (1RS,2SR,5SR)-2-bromomethyl-5-(4-chlorobenzyl)-2-methyl-1-(1H-1,2,4-triazol-1-ylmethyl)cyclopentanol]	60 to 80	60 to 80	≤ 0.2	60 to 80	higher efficacy than that of compound (1)	≥ 90		≥ 80	60 to 80	60 to 80	60 to 80
CC[C@]1(CCl)CC[C@@H](Cc2ccc(Cl)cc2)[C@]1(O)Cn1cncn1 (racemic) [Compound I-36, (1RS,2SR,5SR)-5-(4-chlorobenzyl)-2-chloromethyl-2-ethyl-1-(1H-1,2,4-triazol-1-ylmethyl)cyclopentanol]	60 to 80	60 to 80	≤ 0.2	60 to 80	higher efficacy than that of compound (1)	≥ 90			60 to 80	60 to 80	60 to 80
O[C@]1(Cn2cncn2)[C@H](Cc2ccc(Cl)cc2)CC[C@@H]1C(F)(F)F (racemic) [Compound I-65, (1RS,2SR,5SR)-5-(4-chlorobenzyl)-2-trifluoromethyl-1-(1H-1,2,4-triazol-1-ylmethyl)cyclopentanol]	60 to 80	60 to 80		60 to 80		≥ 90		≥ 80	60 to 80	60 to 80	60 to 80
C[C@]1(CCl)CC[C@@H](Cc2cccc(Cl)c2)[C@]1(O)Cn1cncn1 (racemic) [Compound I-74, (1RS,2SR,5SR)-5-(3-chlorobenzyl)-2-chloromethyl-2-methyl-1-(1H-1,2,4-triazol-1-ylmethyl)cyclopentanol]	60 to 80	60 to 80	≤ 0.2	60 to 80	higher efficacy than that of compound (1)	≥ 90	≥ 80	≥ 80	60 to 80	60 to 80	60 to 80
C[C@@]1(CCl)CC[C@@H](Cc2ccc(Cl)cc2)[C@]1(O)Cn1cncn1 (racemic) [Compound I-101]					higher efficacy than that of compound (1)						
CC(Cl)=C[C@]1(C)CC[C@@H](Cc2ccc(Cl)cc2)[C@]1(O)Cn1cncn1 (racemic) [Compound I-115, (1RS,2SR,5SR)-5-(4-chlorobenzyl)-2-(2-chloropropenyl)-2-methyl-1-(1H-1,2,4-triazol-1-ylmethyl)cyclopentanol]	60 to 80	60 to 80		60 to 80		≥ 90			60 to 80	60 to 80	60 to 80
C[C@]1(CCl)CC[C@@H](Cc2ccc(Cl)cc2)[C@]1(O)Cn1ccnc1 (racemic) [Compound I-244, (1RS,2SR,5SR)-5-(4-chlorobenzyl)-2-chloromethyl-2-methyl-1-imidazol-1-ylmethylcyclopentanol]	60 to 80	60 to 80	≤ 0.2	60 to 80		≥ 90			60 to 80	60 to 80	60 to 80
C[C@]1(CCl)CC[C@H](Cc2ccc(Cl)cc2)[C@]1(O)Cn1cncn1 (racemic) [Compound I-301, (1RS,2SR,5RS)-5-(4-chlorobenzyl)-2-chloromethyl-2-methyl-1-[1,2,4]triazol-1-ylmethylcyclopentanol]	60 to 80	60 to 80	≤ 0.2	60 to 80		≥ 90			60 to 80	60 to 80	60 to 80
O[C@]1(Cn2cncn2)[C@@H](Cc2ccc(Cl)cc2)CC[C@@H]1C(F)(F)F (racemic) [Compound I-365, (1RS,2SR,5RS)-5-(4-chlorobenzyl)-2-trifluoromethyl-1-(1H-1,2,4-triazol-1-ylmethyl)cyclopentanol]	60 to 80	60 to 80		60 to 80					60 to 80	60 to 80	60 to 80
C[C@@]1(CCl)CC[C@H](Cc2ccc(Cl)cc2)[C@]1(O)Cn1cncn1 (racemic) [Compound I-401, (1RS,2RS,5RS)-5-(4-chlorobenzyl)-2-chloromethyl-2-methyl-1-[1,2,4]triazol-1-ylmethylcyclopentanol]	60 to 80	60 to 80		60 to 80					60 to 80	60 to 80	60 to 80
C[C@]1(CCl)CC[C@@H](Cc2ccc(OC(F)(F)F)cc2)[C@]1(O)Cn1cncn1 (relative stereo) [Compound I-79]					higher efficacy than that of compound (1)						
Cc1ccc(C[C@@H]2CC[C@](C)(CCl)[C@@]2(O)Cn2cncn2)cc1 (relative stereo) [Compound I-80]					higher efficacy than that of compound (1)						
C[C@]1(CCl)CC[C@@H](Cc2ccccc2F)[C@]1(O)Cn1cncn1 (relative stereo) [Compound I-86]					higher efficacy than that of compound (1)						
CC[C@]1(CCl)CC[C@@H](Cc2ccccc2)[C@]1(O)Cn1cncn1 (relative stereo) [Compound I-97]					higher efficacy than that of compound (1)						
O[C@]1(Cn2cncn2)[C@H](Cc2ccc(Cl)cc2)CCC1(CCl)CCl (relative stereo) [Compound I-203, cis-5-(4-chlorobenzyl)-2,2-bis(chloromethyl)-1-(1H-1,2,4-triazol-1-yl)methylcyclopentanol]					higher efficacy than that of compound (1)						
